The subject of the first experiment is Pfeiffer cells, lymphoma cells having EZH2 mutation (A677G). Nature of the experiment: Proliferation inhibition of cells of hematologic malignancies (CCK-8, 11 days). Type of experiment: cell-based. Conditions: 11 days culture, read-out: Cell proliferation inhibitory effect (IC50). The protocol:
The growth inhibitory activity of 1,3-benzodioxole derivative compounds represented by chemical formula I of the present invention against Pfeiffer cells, which are lymphoma cells having EZH2 mutation (A677G), was evaluated.
Pfeiffer was cultured using RPMI1640 containing 10% fetal bovine serum. The cells were inoculated into wells of a 96-well culture dish at 10,000 cells each, and cultured for 11 days after treating with the test material for each concentration. For 11 days, the test material was replaced every three to four days. After culturing, the cells were treated with a cell counting kit-8 (CCK-8) reagent for each well, absorbance was measured at 450 nm, and IC50 values for cell proliferation were obtained through curve fitting of non-linear regression in the GraphPad program (GraphPad Prism 5.0 software).
As to `CSc1cc(C)[nH]c(=O)c1CNC(=O)c1cc(-c2ccc(N3C[C@@H](C)O[C@@H](C)C3)nc2)c2c(c1C)OC(C)(C1CCN(C(=O)C(F)(F)F)CC1)O2` (single isomer, unassigned) [Compound 59], the IC50 is no more than 0.01 µM.

As for `CCN1CCC(C2(C)Oc3c(-c4ccc(N5CCOCC5)nc4)cc(C(=O)NCc4c(SC)cc(C)[nH]c4=O)c(C)c3O2)CC1` (single isomer, unassigned) [Compound 66, 2-(1-ethylpiperidin-4-yl)-2,4-dimethyl-N-((6-methyl-4-(methylthio)-2-oxo-1,2-dihydropyridin-3-yl)methyl)-7-(6-morpholinopyridin-3-yl)benzo[d][1,3]dioxole-5-carboxamide], the IC50 was no more than 0.01 µM.

Consider `CSc1cc(C)[nH]c(=O)c1CNC(=O)c1cc(-c2ccc(N3C[C@@H](C)O[C@@H](C)C3)nc2)c2c(c1C)OC(C)(C1CCN(C(C)C)CC1)O2` (single isomer, unassigned) [Compound 52], for which the IC50 is no less than 0.1 µM.

Regarding `CCN1CCC(C2(C)Oc3c(-c4cnc(N(C)CC)nc4)cc(C(=O)NCc4c(SC)cc(C)[nH]c4=O)c(C)c3O2)CC1` (single isomer, unassigned) [Compound 83, 7-(2-(ethyl(methyl)amino)pyrimidin-5-yl)-2-(1-ethylpiperidin-4-yl)-2,4-dimethyl-N-((6-methyl-4-(methylthio)-2-oxo-1,2-dihydropyridin-3-yl)methyl)benzo[d][1,3]dioxole-5-carboxamide], the IC50 is no more than 0.01 µM.

Turning to `CSc1cc(C)[nH]c(=O)c1CNC(=O)c1cc(-c2ccc(N3C[C@@H](C)O[C@@H](C)C3)nc2)c2c(c1C)OC(C)(C1CCN(C3CCCCC3)CC1)O2` (single isomer, unassigned) [Compound 53], the IC50 is no more than 0.01 µM.

`CSc1cc(C)[nH]c(=O)c1CNC(=O)c1cc(-c2ccc(N3C[C@@H](C)O[C@@H](C)C3)nc2)c2c(c1C)OC(C)(C1CCN(C(=O)C(F)(F)F)CC1)O2` (single isomer, unassigned) [Compound 60]: the IC50 was no less than 0.1 µM.

Still in this experiment, the particulars now being: Homo sapiens, Pfeiffer, 264 h, 11 days culture, read-out: Cell proliferation inhibitory effect (IC50).
Consider `CSc1cc(C)[nH]c(=O)c1CNC(=O)c1cc(-c2ccc(N3C[C@@H](C)O[C@@H](C)C3)nc2)c2c(c1C)OC(C)([C@H]1CC[C@H](N3CC(O)C3)CC1)O2` (stereo partly drawn) [Compound 101, 7-(6-((2S,6R)-2,6-dimethylmorpholino)pyridin-3-yl)-2-(trans-4-(3-hydroxyazetidin-1-yl)cyclohexyl)-2,4-dimethyl-N-((6-methyl-4-(methylthio)-2-oxo-1,2-dihydropyridin-3-yl)methyl)benzo[d][1,3]dioxole-5-carboxamide], for which the IC50 is no more than 0.01 µM.

Regarding `CSc1cc(C)[nH]c(=O)c1CNC(=O)c1cc(-c2ccc(N3CC(C)CC(C)C3)nc2)c2c(c1C)OC(C)([C@H]1CC[C@H](N(C)C)CC1)O2` (stereo partly drawn) [Compound 16, 2-(trans-4-(dimethylamino)cyclohexyl)-7-(6-(3,5-dimethylpiperidin-1-yl)pyridin-3-yl)-2,4-dimethyl-N-((6-methyl-4-(methylthio)-2-oxo-1,2-dihydropyridin-3-yl)methyl)benzo[d][1,3]dioxole-5-carboxamide], the IC50 is no more than 0.01 µM.

Regarding `CCN1CCC(C2(C)Oc3c(-c4ccc(N(C)CC)nc4)cc(C(=O)NCc4c(SC)cc(C)[nH]c4=O)c(C)c3O2)CC1` (single isomer, unassigned) [Compound 89, 7-(6-(ethyl(methyl)amino)pyridin-3-yl)-2-(1-ethylpiperidin-4-yl)-2,4-dimethyl-N-((6-methyl-4-(methylthio)-2-oxo-1,2-dihydropyridin-3-yl)methyl)benzo[d][1,3]dioxole-5-carboxamide], the IC50 was no more than 0.01 µM.

With `CSc1cc(C)[nH]c(=O)c1CNC(=O)c1cc(-c2ccc(N3C[C@@H](C)O[C@@H](C)C3)nc2)c2c(c1C)OC(C)([C@H]1CC[C@H](N(C)C)CC1)O2` (stereo partly drawn) [Compound 1, 2-(trans-4-(dimethylamino)cyclohexyl)-7-(6-((2S,6R)-2,6-dimethylmorpholino)pyridin-3-yl)-2,4-dimethyl-N-((6-methyl-4-(methylthio)-2-oxo-1,2-dihydropyridin-3-yl)methyl)benzo[d][1,3]dioxole-5-carboxamide], the IC50 is no more than 0.01 µM.

In the case of `CSc1cc(C)[nH]c(=O)c1CNC(=O)c1cc(-c2cnc(N3CCOCC3)nc2)c2c(c1C)OC(C)(C1CCN(CC(F)(F)F)CC1)O2` (stereo not drawn) [Compound 68, 2,4-dimethyl-N-((6-methyl-4-(methylthio)-2-oxo-1,2-dihydropyridin-3-yl)methyl)-7-(2-morpholinopyrimidin-5-yl)-2-(1-(2,2,2-trifluoro)piperidin-4-yl)benzo[d][1,3]dioxole-5-carboxamide], the IC50 is no more than 0.01 µM.

Turning to `CCN(C)c1ccc(-c2cc(C(=O)NCc3c(SC)cc(C)[nH]c3=O)c(C)c3c2OC(C)(C2CCN(CC(F)F)CC2)O3)cn1` (single isomer, unassigned) [Compound 88, 2-(1-(2,2-difluoroethyl)piperidin-4-yl)-7-(6-(ethyl(methyl)amino)pyridin-3-yl)-2,4-dimethyl-N-((6-methyl-4-(methylthio)-2-oxo-1,2-dihydropyridin-3-yl)methyl)benzo[d][1,3]dioxole-5-carboxamide], the IC50 is no more than 0.01 µM.

Take `CSc1cc(C)[nH]c(=O)c1CNC(=O)c1cc(-c2ccc(N3C[C@@H](C)O[C@@H](C)C3)nc2)c2c(c1C)OC(C)([C@H]1CC[C@H](N3CC(OCC(F)(F)F)C3)CC1)O2` (stereo partly drawn) [Compound 102]: the IC50 fell in the range of 0.01 to 0.1 µM.

Take `CSc1cc(C)[nH]c(=O)c1CNC(=O)c1cc(-c2ccc(N3CCOCC3)nc2)c2c(c1C)OC(C)(C1CCN(CC(F)(F)F)CC1)O2` (stereo not drawn) [Compound 61, 2,4-dimethyl-N-((6-methyl-4-(methylthio)-2-oxo-1,2-dihydropyridin-3-yl)methyl)-7-(6-morpholinopyridin-3-yl)-2-(1-(2,2,2-trifluoro)piperidin-4-yl)benzo[d][1,3]dioxole-5-carboxamide]: the IC50 is no more than 0.01 µM.

Regarding `CSc1cc(C)[nH]c(=O)c1CNC(=O)c1cc(-c2cnc(N(C)C)nc2)c2c(c1C)OC(C)([C@H]1CC[C@H](N(C)CC(F)(F)F)CC1)O2` (stereo partly drawn) [Compound 22, 7-(2-(dimethylamino)pyrimidin-5-yl)-2,4-dimethyl-2-(trans-4-(methyl(2,2,2-trifluoroethyl)amino)cyclohexyl)-N-((6-methyl-4-(methylthio)-2-oxo-1,2-dihydropyridin-3-yl)methyl)benzo[d][1,3]dioxole-5-carboxamide], the IC50 is no more than 0.01 µM.

With `CCN(C)c1ncc(-c2cc(C(=O)NCc3c(SC)cc(C)[nH]c3=O)c(C)c3c2OC(C)(C2CCN(CC(F)F)CC2)O3)cn1` (single isomer, unassigned) [Compound 81, 2-(1-(2,2-difluoroethyl)piperidin-4-yl)-7-(2-(ethyl(methyl)amino)pyrimidin-5-yl)-2,4-dimethyl-N-((6-methyl-4-(methylthio)-2-oxo-1,2-dihydropyridin-3-yl)methyl)benzo[d][1,3]dioxole-5-carboxamide], the IC50 was no more than 0.01 µM.

For the molecule `CSc1cc(C)[nH]c(=O)c1CNC(=O)c1cc(-c2cnc(N3CCCCC3)nc2)c2c(c1C)OC(C)([C@H]1CC[C@H](N(C)CC(F)(F)F)CC1)O2` (stereo partly drawn) [Compound 21, 2,4-dimethyl-2-(trans-4-(methyl(2,2,2-trifluoroethyl)amino)cyclohexyl)-N-((6-methyl-4-(methylthio)-2-oxo-1,2-dihydropyridin-3-yl)methyl)-7-(2-(piperidin-1-yl)pyrimidin-5-yl)benzo[d][1,3]dioxole-5-carboxamide], the IC50 was no more than 0.01 µM.

For `CSc1cc(C)[nH]c(=O)c1CNC(=O)c1cc(-c2ccc3c(c2)OC(F)(F)O3)c2c(c1C)OC(C)(C1CCN(CC(F)(F)F)CC1)O2` (stereo not drawn) [Compound 93, 2′,2′-difluoro-2,7-dimethyl-N-((6-methyl-4-(methylthio)-2-oxo-1,2-dihydropyridin-3-yl)methyl)-2-(1-(2,2,2-trifluoroethyl)piperidin-4-yl)-[4,5′-bibenzo[d][1,3]dioxol]-6-carboxamide], the IC50 was no less than 0.1 µM.

On to `CSc1cc(C)[nH]c(=O)c1CNC(=O)c1cc(-c2ccc(N3C[C@@H](C)O[C@@H](C)C3)nc2)c2c(c1C)OC(C)([C@H]1CC[C@H](N(C)CC3OCCO3)CC1)O2` (stereo partly drawn) [Compound 32, 2-(trans-4-(((1,3-dioxolan-2-yl)methyl)(methyl)amino)cyclohexyl)-7-(6-((2S,6R)-2,6-dimethylmorpholino)pyridin-3-yl)-2,4-dimethyl-N-((6-methyl-4-(methylthio)-2-oxo-1,2-dihydropyridin-3-yl)methyl)benzo[d][1,3]dioxole-5-carboxamide], for which the IC50 is no more than 0.01 µM.

As for `CSc1cc(C)[nH]c(=O)c1CNC(=O)c1cc(-c2ccc3c(c2)OCO3)c2c(c1C)OC(C)(C1CCN(CC(F)(F)F)CC1)O2` (stereo not drawn) [Compound 94, 2,7-dimethyl-N-((6-methyl-4-(methylthio)-2-oxo-1,2-dihydropyridin-3-yl)methyl)-2-(1-(2,2,2-trifluoroethyl)piperidin-4-yl)-[4,5′-bibenzo[d][1,3]dioxol]-6-carboxamide], the IC50 lay in the range of 0.01 to 0.1 µM.

Take `COCCN(C)[C@H]1CC[C@H](C2(C)Oc3c(-c4cnc(N5C[C@@H](C)O[C@@H](C)C5)nc4)cc(C(=O)NCc4c(SC)cc(C)[nH]c4=O)c(C)c3O2)CC1` (stereo partly drawn) [Compound 25, 7-(2-((2S,6R)-2,6-dimethylmorpholino)pyrimidin-5-yl)-2-(trans-4-((2-methoxyethyl)(methyl)amino)cyclohexyl)-2,4-dimethyl-N-((6-methyl-4-(methylthio)-2-oxo-1,2-dihydropyridin-3-yl)methyl)benzo[d][1,3]dioxole-5-carboxamide]: the IC50 is no more than 0.01 µM.

Source of the values: patent publication US20250059180A1 (DONG WHA PHARM. CO., LTD., priority 2022, published 2025).
